We go through two compounds from patent US12570752B2, “Combination therapy with an anti BCMA antibody and a gamma secretase inhibitor” (priority 2019, dated 2026).

Data set [1] concerns multiple myeloma cell line L363. The data set is described as follows: L363 cell viability, nirogacestat pre-treatment then belantamab mafodotin or controls. The format is cell-based. To be noted: nirogacestat pre-treatment 24 hours, then treatment for additional 72 hours.
For data set [2] the following is noted: cited from earlier work.
The conditions of data set [3]: cited from earlier work. The source holds these as a separate data set.

With `CCC[C@H](N[C@H]1CCc2cc(F)cc(F)c2C1)C(=O)Nc1cn(C(C)(C)CNCC(C)(C)C)cn1` [nirogacestat, (S)-2-(((S)-6,8-difluoro-1,2,3,4-tetrahydronaphthalen-2-yl)amino)-N-(1-(2-methyl-1-(neopentylamino)propan-2-yl)-1H-imidazol-4-yl)pentanamide], in data set [1], the “effect on cell viability” value is reported as “no effect”. Besides, in data set [2] (after treatment initiation), the “time to pharmacodynamically active plasma levels” value is less than 48 h. Further, the exposure versus dose result in data set [2] (between 20 and 330 mg BID) is reported as “dose-proportional”. Moreover, in data set [2] (repeated BID administration), the time to steady-state is no more than 8 days. Also, the “incidence of dose-limiting diarrhea and elevated liver enzymes” value in data set [3] (compared with RO4929097 or MK-0752 (Messersmith, 2015)) is “does not appear to be as high”. For the same compound, the “safety profile versus other gamma-secretase inhibitors” value in data set [3] (in vivo) is reported as “better safety profile”. For the same compound, the “incidence of secondary primary malignancies (SPM) or treatment-emergent infections” value in data set [3] (unlike e.g. semagacestat (Messersmith, 2015; Henley, 2014)) is “there does not seem to be an increased incidence”.

For the compound Belantamab, the “effect on cell viability” value in data set [1] is given as “no effect”.
